Laboratory results published in PMC3548707, “Biocatalytic potential of laccase-like multicopper oxidases from Aspergillus niger” (Microbial Cell Factories, 2012).
Read-outs that look alike come from different tables or passages of the source.

What was measured:
McoB [1] = details: read-out: ABTS; pH 5.0; 0.125 to 15 mM substrate
McoG [2] = details: read-out: ABTS; pH 5.0; 0.125 to 15 mM substrate
McoB [3] = molecular target: T1, McoB; assay: initial oxidation rate at […] nm, Michaelis-Menten fit; type: biochemical, Aspergillus niger; details: substrate inhibition; second site; pH 5.0
T1 construct: secreted, homologously expressed in A. niger N593, purified from culture supernatant; theoretical ~63 kDa, ~88 kDa SDS-PAGE, ~96 kDa gel filtration; monomer; yellow

McoB [4] = tested on: T1, McoB; assay: as above; type: biochemical, Aspergillus niger; details: pH 5.0; 0.125 to 15 mM substrate; fit with substrate inhibition; read-out: DMPPDA
McoA = tested on: T2, McoA; assay: as above; type: biochemical, Aspergillus niger; details: pH 5.0; 0.125 to 15 mM substrate; read-out: DMPPDA
T2 construct: secreted, homologously expressed in A. niger N593, purified from culture supernatant; theoretical ~64 kDa, ~110 kDa SDS-PAGE, ~120 kDa gel filtration; monomer; blue

McoG [5] = molecular target: T3, McoG; assay: as above; type: biochemical, Aspergillus niger; details: substrate inhibition; second site; pH 5.0
T3 construct: secreted, homologously expressed in A. niger N593, purified from culture supernatant; theoretical ~65 kDa, ~80 kDa SDS-PAGE, ~99 kDa gel filtration; monomer; blue

McoG [6] = tested on: T3, McoG; assay: as above; type: biochemical, Aspergillus niger; details: pH 5.0; 0.125 to 15 mM substrate; fit with substrate inhibition; read-out: DMPPDA

| Km (McoB [1]) | Km (McoG [2]) | Structure (SMILES) | Ki (McoB [3]) | Km (McoB [4]) | Km (McoA) | Ki (McoG [5]) | Km (McoG [6]) |
| --- | --- | --- | --- | --- | --- | --- | --- |
| 500 ± 100 µM | 5.6 ± 1 mM | CCn1c(=NN=c2sc3cc(S(=O)(=O)O)ccc3n2CC)sc2cc(S(=O)(=O)O)ccc21 [ABTS] | – | – | – | – | – |
| – | – | CN(C)c1ccc(N)cc1 [DMPPDA] | 22.4 ± 6.4 mM | 400 ± 100 µM | 3.6 ± 0.2 mM | 4.6 ± 0.7 mM | 1.8 ± 0.3 mM |
